Laboratory results reported in US11542295B2, “Use of 20-hydroxyecdysone and the derivatives thereof in the treatment of myopathies” (BIOPHYTIS, priority 2017, dated 2023).

Experiments:
[1] = system: CTGF (connective tissue growth factor); experiment: Heart mRNA expression of fibrosis marker CTGF (semi-quantitative PCR); type: in vivo, mouse; settings: mdx mice, 50 mg/kg*day, two months; p=0,0506
Protocol: (§1) Twelve-week-old C57BL10 gene pool (wild mice referred to as “C57” in the figures) and C57BL10 mdx (mouse model of Duchenne muscular dystrophy, referred to as “mdx” in the figures) male mice, produced at Charles Rivers, were used. Two groups of mdx were chronically exposed per os either to BIO101 (number of mice n=9) or to BIO103 (number of mice n=9) at a dose of 50 mg/kg*day. A group of C57 mice (number of mice n=5) and a group of mdx mice (number of mice n=15) received the vehicle, i.e. no treatment. The animals of all of the groups were tested for their functional capacity (exertion tolerance test) after two months of treatment. […]
(§2) An assessment of markers of fibrosis and cardiac hypertrophy is carried out at the end of the protocol, i.e. after two months of treatment. […] The extract RNA is quantified by spectrophotometry then the quality thereof is verified and validated with the Experion RNA StdSens Analysis Kit (Bio-Rad). […] Finally, semi-quantitative PCR analysis was carried out using SYBR® Green (Roche), a DNA intercalating agent and a LightCycler® 480 Real Time PCR (Roche) apparatus on 384-well plates. The molecular markers measured are as follows: • CTGF and collagen I: connective tissue growth factor (CTGF) is associated with healing and with many pathological fibrotic processes including DMD (Brigstock 2010; Song Y. 2017). […]

[2] = system: tibialis anterior muscle of C57BL10 mdx mice; experiment: Histological study of tibialis anterior muscle stained with haematoxylin eosin (lesion profiles); type: in vivo, mouse; settings: 50 mg/kg*day, two months, HE staining
Protocol: (§3) Twelve-week-old C57BL10 gene pool (wild mice referred to as “C57” in the figures) and C57BL10 mdx (mouse model of Duchenne muscular dystrophy, referred to as “mdx” in the figures) male mice, produced at Charles Rivers, were used. Two groups of mdx were chronically exposed per os either to BIO101 (number of mice n=9) or to BIO103 (number of mice n=9) at a dose of 50 mg/kg*day. A group of C57 mice (number of mice n=5) and a group of mdx mice (number of mice n=15) received the vehicle, i.e. no treatment. The animals of all of the groups were tested for their functional capacity (exertion tolerance test) after two months of treatment. The exertion tolerance test consists of measuring the maximum distance travelled (in-toto activity; FIGS. 1A and 1B). Furthermore, measurements of the maximum absolute isometric strength of the tibialis anterior muscle (in-situ activity; FIGS. 2A and 2B) were made after two months of treatment.
(§4) An assessment of muscle fibrosis by histological study is carried out on the tibialis anterior muscle (abbreviated as TA). Histological sections (7 μm) are produced and stained either with haematoxylin eosin (HE) or with Sirius Red (SR).
An anatomopathological study of the sections of tibialis anterior muscle stained with HE makes it possible to assess the degree of muscle fibre involvement. Representative images of tibialis anterior muscle sections stained with HE obtained from C57 animals (FIG. 4A), mdx animals (FIG. 4B), mdx animals treated with BIO101 (FIG. 4C) and mdx animals treated with BIO103 (FIG. 4D) are shown. The scale bars correspond to 200 μm. The TA muscles of C57 mice show no muscle lesions (FIG. 4A). The TA muscles of untreated mdx mice show a wide diversity of lesion profiles: moderate anisocytosis with numerous necrotic fibres. […] The A sign indicates the inflammatory foci with which fibrosis is associated. […] Indeed, 67% (6 out of 9 TA muscles) of the muscles treated with BIO103 can be classified in this category.

[3] = system: Human DMD skeletal muscle cells (KM571DMD1OFL Cl1); experiment: Cellular respiration (oxygen consumption rate, Seahorse XF Analyzer); type: cell-based; settings: two days of treatment
Protocol: Human DMD skeletal muscle cells (KM571DMD1OFL Cl1) were differentiated for 4 days, then incubated in the presence or absence of BIO101 (1 or 5 μM) for 2 days. The oxygen consumption rate, also known as OCR, which reflects the mitochondrial respiration of the cells was measured using a Seahorse XF Analyzer (registered trademark, Agilent).
The basal respiration is measured directly whereas the maximum respiration is measured after adding oligomycin followed by FCCP (FIG. 9A and FIG. 9B). The results are referenced to the OCR of the untreated cells and are shown in the form of means plus or minus the standard error (SEM).

[4] = system: tibialis anterior muscle of C57BL10 mdx mice; experiment: Skeletal muscle vascularisation (number of vessels per muscle fibre, anti-laminin / anti-CD31 labelling); type: in vivo, mouse; settings: 50 mg/kg*day per os, two months of daily exposure
Protocol: A quantitative vascularisation study was carried out on sections of tibialis anterior muscle (abbreviated as TA) of healthy C57 mice as well as on mdx mice treated with the vehicle and mdx mice treated with BIO101 or BIO103. Double immunofluorescence labelling is carried out, anti-laminin labelling with the function of identifying the basal membrane of the muscle fibres and anti-CD31 labelling having the function of identifying the vessel. The number of vessels per muscle fibre is quantified. The mdx animals received daily, per os, either the vehicle or BIO101 (50 mg/kg*day) or BIO103 (50 mg/kg*day).

[5] = system: Col1a1 (collagen 1); experiment: Heart mRNA expression of fibrosis marker Col1a1 (semi-quantitative PCR); type: in vivo, mouse; settings: mdx mice, 50 mg/kg*day, two months
Protocol: as §1, §2

[6] = system: tibialis anterior muscle of C57BL10 mdx mice; experiment: Histological study of tibialis anterior muscle stained with Sirius Red (fibrotic area); type: in vivo, mouse; settings: 50 mg/kg*day, two months, p=0.0709
Protocol: as §3, §4
An anatomopathological analysis of the sections of tibialis anterior muscle stained with SR makes it possible to quantify the fibrotic area. […]

[7] = system: collagen I; experiment: Collagen I protein expression in gastrocnemius muscle (Western Blot); type: in vivo, mouse; settings: 50 mg/kg*day, two months, p<0.01
Protocol: as §3
Alongside the observations made on the tibialis anterior muscle, an assessment of a marker of muscle fibrosis is carried out on the gastrocnemius muscle. The muscle is dissociated with moderate stirring for 16 h at 4° C. in RIPA lysis buffer. […] Collagen I is detected by Western Blot, detected by chemiluminescence then quantified by densitometry after normalisation with reference to GAPDH detection. […]

CC(C)(O)CC[C@@H](O)[C@](C)(O)[C@H]1CC[C@@]2(O)C3=CC(=O)[C@@H]4C[C@@H](O)[C@@H](O)C[C@]4(C)[C@H]3CC[C@]12C [BIO101, 20-hydroxyecdysone]
genic expression of CTGF in heart compared to control mdx animals [1]: prevents
TA muscles with minor lesion profile [2]: 37.5%
TA muscles with pronounced lesion profile (anisocytosis, dispersed necrotic fibres and variable inflammation) [2]: 62.5%
basal respiration increase (OCR) vs untreated cells ([3]; 1 μM, p<0.01): 20%
maximum respiration increase (OCR after oligomycin and FCCP) vs untreated cells ([3]; 1 μM, p<0.05): 51%
maximum respiration increase (OCR after oligomycin and FCCP) vs untreated cells ([3]; 5 μM, p =0.13): 22%
basal respiration increase (OCR) vs untreated cells ([3]; 5 μM, p<0.001): 21%
increase of the number of vessels per muscle fibre compared to untreated mdx animals (vehicle) [4]: 14.1%

CCSCC(=O)[C@H]1CC[C@@]2(O)C3=CC(=O)[C@@H]4C[C@@H](O)[C@@H](O)C[C@]4(C)C3CC[C@]12C (stereo partly drawn) [BIO103, (2S,3R,5R,10R,13R,14S,17S)-17-(2-ethylsulfanylacetyl)-2,3,14-trihydroxy-10,13-dimethyl-2,3,4,5,9,11,12,15,16,17-decahydro-1H-cyclopenta[a]phenanthren-6-one]
genic expression of Col1a1 in heart compared to control mdx animals [5]: tends to prevent
TA muscles with minor lesion profile [2]: 67%
TA muscles with pronounced lesion profile tending towards atrophy [2]: 11%
TA muscles with pronounced lesion profile with a somewhat necrotic tendency [2]: 11%
TA muscles with severe lesion profile (large acute necrotic plaques with no regeneration) [2]: 11%
onset of fibrosis (percentage area corresponding to fibrosis) compared to the control mdx group [6]: clearly tends to prevent
protein expression of collagen I in gastrocnemius muscle compared to untreated mdx mice [7]: significant decrease
increase of the number of vessels per muscle fibre compared to untreated mdx animals (vehicle) [4]: 28.2%
